Results published in patent US20120083489A1, “BIS-PYRIDYLPYRIDONES AS MELANIN-CONCENTRATING HORMONE RECEPTOR ANTAGONISTS” (priority 2009, published 2012).

Target: T1, hMCHR1 (Homo sapiens, UniProt Q99705)
T1 construct: expressed in transfected cells; host or cells: HEK293
Test: MCHR1 pIC50 determination FLIPR assay
Assay type: cell-based
Settings: HEK293 cells stably transfected with hMCHR1; MCH challenge at 4xEC50
Description: MCHR1 plC50 Determination FLIPR™Assay: HEK293 cells stably transfected with hMCHR1 were propagated as adherent cultures at 37° C. in a humidified incubator. Cells were split 1:8 at 90% confluency two times per week. New cell stocks were recovered from storage every two months. Cells were plated in black 384-well plates (Greiner) 24 hours prior to assay at 15,000 cells/well in 50 μL DMEM/F12, 10% FBS, 2 mM I-glutamine. Compounds to be profiled were prepared by making a stock solution at 3×10^−3M in 100% DMSO. The stock solutions were serially diluted 1:4 in 100% DMSO using JANUS (PerkinElmer) liquid handling instrument to allow for an 11 point curve in singlicate. At the time of the assay, the media was removed from the cell plate by aspiration, followed by the addition of 20 μL of loading buffer (Calcium 4 Kit, […]). Following 50 min incubation at 37° C., 10 μL of compound was added to the plates via the FLIPR™ instrument (Molecular Dynamics corporation). The plates were incubated at room temperature for 15 minutes along with an MCH peptide agonist challenge plate. On the FLIPR™, a basal response was collected over 10 seconds followed by the addition of 10 μL of MCH challenge concentration at 4×EC50. Data was collected over 4 minutes and subjected to a nonlinear regression analysis curve fitting program to generate plC50s.

T1 sequence (Q99705 whole entry): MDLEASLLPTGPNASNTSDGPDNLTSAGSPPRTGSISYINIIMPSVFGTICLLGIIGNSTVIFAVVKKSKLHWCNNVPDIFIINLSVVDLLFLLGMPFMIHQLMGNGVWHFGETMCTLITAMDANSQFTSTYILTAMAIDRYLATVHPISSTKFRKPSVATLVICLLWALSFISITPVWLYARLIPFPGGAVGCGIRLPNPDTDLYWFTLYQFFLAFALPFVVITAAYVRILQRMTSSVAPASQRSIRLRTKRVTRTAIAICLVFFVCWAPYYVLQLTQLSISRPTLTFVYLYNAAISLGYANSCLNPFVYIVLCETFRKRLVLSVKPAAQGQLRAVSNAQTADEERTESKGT

Structure (SMILES) | IC50 [nM]
CCN(CC)CCNc1ccc(-n2ccc(OCc3ccc(Cl)cn3)cc2=O)cn1 [Example 8] | 25
CS(=O)(=O)NCCNc1ccc(-n2ccc(OCc3ccc(Cl)cn3)cc2=O)cn1 [Example 20] | 50
CCS(=O)(=O)NCCNc1ccc(-n2ccc(OCc3ccc(Cl)cn3)cc2=O)cn1 [Example 27] | 90
